Experimental data from patent US20220388964A1 (HiberCell, Inc., priority 2019, published 2022).

Target: GCN2 (Homo sapiens, UniProt Q9P2K8)
Test: TR-FRET biochemical assay for inhibition of GCN2 (Example 106, for Example 1-4BB)
Conditions: Table 8

Chain of GCN2 (Q9P2K8 whole entry): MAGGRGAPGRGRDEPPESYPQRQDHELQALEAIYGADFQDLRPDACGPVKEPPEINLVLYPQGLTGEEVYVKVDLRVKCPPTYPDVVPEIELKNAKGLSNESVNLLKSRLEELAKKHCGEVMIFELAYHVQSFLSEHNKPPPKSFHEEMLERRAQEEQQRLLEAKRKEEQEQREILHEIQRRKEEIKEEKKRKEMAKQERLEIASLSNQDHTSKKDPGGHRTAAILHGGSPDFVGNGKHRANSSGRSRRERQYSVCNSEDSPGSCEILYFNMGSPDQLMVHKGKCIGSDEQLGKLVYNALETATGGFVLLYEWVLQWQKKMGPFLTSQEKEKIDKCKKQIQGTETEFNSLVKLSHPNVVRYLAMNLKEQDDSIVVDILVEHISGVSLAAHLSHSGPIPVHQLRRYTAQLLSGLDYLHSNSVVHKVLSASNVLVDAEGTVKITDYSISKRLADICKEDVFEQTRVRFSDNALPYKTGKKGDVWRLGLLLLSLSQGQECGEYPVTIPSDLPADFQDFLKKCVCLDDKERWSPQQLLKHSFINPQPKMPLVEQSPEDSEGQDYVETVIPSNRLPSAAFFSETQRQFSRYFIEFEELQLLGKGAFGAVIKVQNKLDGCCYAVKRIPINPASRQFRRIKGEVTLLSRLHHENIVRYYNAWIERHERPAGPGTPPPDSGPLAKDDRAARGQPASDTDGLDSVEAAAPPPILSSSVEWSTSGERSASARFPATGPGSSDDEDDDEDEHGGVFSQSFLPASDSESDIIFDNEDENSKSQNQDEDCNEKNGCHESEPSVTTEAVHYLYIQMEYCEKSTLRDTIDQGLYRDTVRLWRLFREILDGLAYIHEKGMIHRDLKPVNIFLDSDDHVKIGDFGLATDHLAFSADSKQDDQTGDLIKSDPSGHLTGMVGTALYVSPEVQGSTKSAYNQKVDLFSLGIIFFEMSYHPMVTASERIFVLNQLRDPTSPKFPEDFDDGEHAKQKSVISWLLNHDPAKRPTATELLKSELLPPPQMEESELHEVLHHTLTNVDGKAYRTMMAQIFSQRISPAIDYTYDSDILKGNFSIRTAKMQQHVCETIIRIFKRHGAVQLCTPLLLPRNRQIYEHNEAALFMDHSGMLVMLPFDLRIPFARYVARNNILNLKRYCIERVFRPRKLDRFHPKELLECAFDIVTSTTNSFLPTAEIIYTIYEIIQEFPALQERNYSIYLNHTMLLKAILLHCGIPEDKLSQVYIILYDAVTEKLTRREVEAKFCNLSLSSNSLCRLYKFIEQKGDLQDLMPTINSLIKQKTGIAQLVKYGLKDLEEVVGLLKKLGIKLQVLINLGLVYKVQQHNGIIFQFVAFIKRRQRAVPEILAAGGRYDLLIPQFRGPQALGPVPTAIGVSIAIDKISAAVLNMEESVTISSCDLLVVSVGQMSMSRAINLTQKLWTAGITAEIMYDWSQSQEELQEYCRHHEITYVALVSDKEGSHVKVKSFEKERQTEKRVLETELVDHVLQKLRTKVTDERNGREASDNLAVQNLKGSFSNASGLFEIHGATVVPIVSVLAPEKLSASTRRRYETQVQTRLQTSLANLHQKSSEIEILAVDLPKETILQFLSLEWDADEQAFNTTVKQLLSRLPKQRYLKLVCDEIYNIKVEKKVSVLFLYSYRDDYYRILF

Question: How did the IC50 turn out when `Cc1nn(C)cc1S(=O)(=O)Nc1cccc(-c2ccc3c(-c4ncc[nH]4)n[nH]c3c2F)c1F` [Example 2N, N-(2-fluoro-3-(7-fluoro-3-(1H-imidazol-2-yl)-1H-indazol-6-yl)phenyl)-1,3-dimethyl-1H-pyrazole-4-sulfonamide] was run?
Answer: The IC50 was 2500 to 10000 nM.

Question: Which IC50 does the source give for `COc1ncccc1S(=O)(=O)Nc1ncc(F)c(-c2ccc3c(-c4ncc[nH]4)n[nH]c3c2F)c1F` [Example 2CL, N-(3,5-difluoro-4-(7-fluoro-3-(1H-imidazol-2-yl)-1H-indazol-6-yl)pyridin-2-yl)-2-methoxypyridine-3-sulfonamide] here?
Answer: The IC50 was less than 500 nM.

Question: With `COc1cccc(S(=O)(=O)Nc2ccc(F)c(-c3ccc4c(-c5ncc[nH]5)n[nH]c4c3F)c2F)c1C` [Example 2AR, N-(2,4-difluoro-3-(7-fluoro-3-(1H-imidazol-2-yl)-1H-indazol-6-yl)phenyl)-3-methoxy-2-methylbenzene-sulfonamide] as the compound, how does the IC50 read?
Answer: Its IC50 is 500 to 2500 nM.

Question: How did the IC50 turn out when `O=S(=O)(Nc1ccc(F)c(-c2ccc3c(-c4ncc[nH]4)n[nH]c3c2F)c1F)c1cccnc1CO` [Example 2Q, N-(2,4-difluoro-3-(7-fluoro-3-(1H-imidazol-2-yl)-1H-indazol-6-yl)phenyl)-2-(hydroxyl-methyl)pyridine-3-sulfonamide] was run?
Answer: Its IC50 is 500 to 2500 nM.

Question: For `O=c1[nH]cccc1S(=O)(=O)Nc1ccc(F)c(-c2ccc3c(-c4ncc[nH]4)n[nH]c3c2F)c1F` [Example 2AC, N-(2,4-difluoro-3-(7-fluoro-3-(1H-imidazol-2-yl)-1H-indazol-6-yl)phenyl)-2-oxo-1,2-dihydro-pyridine-3-sulfonamide], which IC50 is on record?
Answer: Its IC50 is 2500 to 10000 nM.

Question: For `Cc1nn(C)c(C)c1S(=O)(=O)Nc1ccc(F)c(-c2ccc3c(-c4ncc[nH]4)n[nH]c3c2F)c1F` [Example 2E, N-(2,4-difluoro-3-(7-fluoro-3-(1H-imidazol-2-yl)-1H-indazol-6-yl)phenyl)-1,3,5-trimethyl-1H-pyrazole-4-sulfonamide], which IC50 is on record?
Answer: Its IC50 is 500 to 2500 nM.

Question: With `COc1cccc(S(=O)(=O)Nc2ccc(F)c(-c3ccc4c(-c5ncc[nH]5)n[nH]c4c3F)c2F)n1` [Example 2AM, N-(2,4-difluoro-3-(7-fluoro-3-(1H-imidazol-2-yl)-1H-indazol-6-yl)phenyl)-6-methoxypyridine-2-sulfonamide] as the compound, how does the IC50 read?
Answer: The IC50 was 500 to 2500 nM.

Question: How did the IC50 turn out when `O=S(=O)(Nc1ccc(F)c(-c2ccc3c(-c4ncc[nH]4)n[nH]c3c2F)c1F)c1cc(Cl)ccc1CO` [Example 2BW, 5-chloro-N-(2,4-difluoro-3-(7-fluoro-3-(1H-imidazol-2-yl)-1H-indazol-6-yl)phenyl)-2-(hydroxyl-methyl)benzene-sulfonamide] was run?
Answer: Its IC50 is less than 500 nM.

Question: How did the IC50 turn out when `O=S(=O)(Nc1ccc(F)c(-c2ccc3c(-c4ncc[nH]4)n[nH]c3c2F)c1F)c1cccc(Cl)c1` [Example 2CN, 3-chloro-N-(2,4-difluoro-3-(7-fluoro-3-(1H-imidazol-2-yl)-1H-indazol-6-yl)phenyl)ben-zenesulfonamide] was run?
Answer: Its IC50 is 500 to 2500 nM.

Question: For `COC(=O)c1ccc(Cl)cc1S(=O)(=O)Nc1ccc(F)c(-c2ccc3c(-c4ncc[nH]4)n[nH]c3c2F)c1F` [Example 2BC, methyl 4-chloro-2-(N-(2,4-difluoro-3-(7-fluoro-3-(1H-imidazol-2-yl)-1H-indazol-6-yl)phenyl)sulfamoyl)benzoate], which IC50 is on record?
Answer: The IC50 was less than 500 nM.

Same assay, conditions: Table 9

Question: How did the IC50 turn out when `COc1ncc(Cl)cc1S(=O)(=O)Nc1cccc(-c2ncc3c(-c4ncc[nH]4)n[nH]c3c2F)c1F` [Example 3AG, 5-chloro-N-(2-fluoro-3-(7-fluoro-3-(1H-imidazol-2-yl)-1H-pyrazolo[4,3-c]pyridin-6-yl)phenyl)-2-methoxy-pyridine-3-sulfonamide] was run?
Answer: Its IC50 is less than 500 nM.

Question: Which IC50 does the source give for `COc1ncc(F)cc1S(=O)(=O)Nc1nccc(-c2ccc3c(C(N)=O)n[nH]c3c2F)c1F` [Example 3Q, 6-(3-fluoro-2-((5-fluoro-2-methoxypyridine)-3-sulfonamido)pyridin-4-yl)-7-fluoro-1H-indazole-3-carboxamide] here?
Answer: The IC50 was 500 to 2500 nM.

Question: How did the IC50 turn out when `COc1ncc(F)cc1S(=O)(=O)Nc1ccc(F)c(-c2ccc3c(C(=O)NCC[C@@H](O)CO)n[nH]c3c2F)c1F` [Example 3BF, 6-(2,6-difluoro-3-((5-fluoro-2-methoxypyridine)-3-sulfonamido)phenyl)-N-((R)-3,4-dihydroxybutyl)-7-fluoro-1H-indazole-3-carboxamide] was run?
Answer: Its IC50 is less than 500 nM.

Question: `COc1ncncc1S(=O)(=O)Nc1ccc(F)c(-c2ccc3c(-c4ncc[nH]4)n[nH]c3c2F)c1F` [Example 3CX, N-(2,4-difluoro-3-(7-fluoro-3-(1H-imidazol-2-yl)-1H-indazol-6-yl)phenyl)-4-methoxypyrimidine-5-sulfonamide] was tested. Which IC50 did it give?
Answer: Its IC50 is 500 to 2500 nM.

Question: Which IC50 does the source give for `COc1ncc(F)cc1S(=O)(=O)Nc1ccc(F)c(-c2ccc3c(-c4nc(C(N)=O)c[nH]4)n[nH]c3c2F)c1F` [Example 20, 2-(6-(2,6-Difluoro-3-((5-fluoro-2-methoxypyridine)-3-sulfonamido)phenyl)-7-fluoro-1H-indazol-3-yl)-1H-imidazole-4-carboxamide] here?
Answer: The IC50 was less than 500 nM.

Question: Which IC50 does the source give for `COc1ncccc1S(=O)(=O)Nc1ccc(F)c(-c2ccc3c(C(N)=O)n[nH]c3c2F)c1F` [Example 3BJ, 6-(2,6-difluoro-3-((2-methoxypyridine)-3-sulfonamido)phenyl)-7-fluoro-1H-indazole-3-carboxamide] here?
Answer: Its IC50 is 500 to 2500 nM.

Question: For `Cn1cc(NC(=O)c2n[nH]c3c(F)c(-c4c(F)ccc(NS(=O)(=O)c5cc(F)cc6c5CCC6O)c4F)ccc23)cn1` (centres unmarked) [Example 4AI], which IC50 is on record?
Answer: The IC50 was less than 500 nM.

Question: `Cc1ccc(F)cc1S(=O)(=O)Nc1ccc(F)c(-c2ncc3c(-c4ncc[nH]4)n[nH]c3c2F)c1F` [Example 38, N-[2,4-difluoro-3-[7-fluoro-3-(1H-imidazol-2-yl)-1H-pyrazolo[4,3-c]pyridin-6-yl]phenyl]-5-fluoro-2-methyl-benzenesulfonamide] was tested. Which IC50 did it give?
Answer: The IC50 was less than 500 nM.

Question: Which IC50 does the source give for `COc1ncc(Cl)cc1S(=O)(=O)Nc1ccc(F)c(-c2ccc3c(C(=O)N[C@@H]4CCN(C)C4)n[nH]c3c2F)c1F` [Example 3AD, 6-(3-((5-chloro-2-methoxy-pyridine)-3-sulfonamido)-2,6-difluorophenyl)-7-fluoro-N-((R)-1-methylpyrrolidin-3-yl)-1H-indazole-3-carboxamide] here?
Answer: Its IC50 is less than 500 nM.

Question: For `COc1ncc(F)cc1S(=O)(=O)Nc1ccc(F)c(-c2ccc3c(C(=O)NCCNC(C)=O)n[nH]c3c2F)c1F` [Example 23, N-(2-Acetamidoethyl)-6-(2,6-difluoro-3-((5-fluoro-2-methoxypyridine)-3-sulfonamido)phenyl)-7-fluoro-1H-indazole-3-carboxamide], which IC50 is on record?
Answer: Its IC50 is 500 to 2500 nM.

Question: How did the IC50 turn out when `COc1ncc(Cl)cc1S(=O)(=O)Nc1cc(F)cc(-c2ccc3c(C(=O)NCCCN(C)C)n[nH]c3c2F)c1F` [Example 3BB, 6-(3-((5-chloro-2-methoxy-pyridine)-3-sulfonamido)-2,5-difluorophenyl)-N-(3-(dimethylamino)propyl)-7-fluoro-1H-indazole-3-carboxamide] was run?
Answer: The IC50 was less than 500 nM.

Question: For `COc1ncc(Cl)cc1S(=O)(=O)Nc1ccc(F)c(-c2ccc3c(C(=O)Nc4cnoc4)n[nH]c3c2F)c1F` [Example 3CV, 6-(3-((5-chloro-2-methoxy-pyridine)-3-sulfonamido)-2,6-difluorophenyl)-7-fluoro-N-(isoxazol-4-yl)-1H-indazole-3-carboxamide], which IC50 is on record?
Answer: Its IC50 is less than 500 nM.

Question: How did the IC50 turn out when `COc1ncc(Cl)cc1S(=O)(=O)Nc1ccc(F)c(-c2ccc3c(C(=O)Nc4cnn(CCO)c4)n[nH]c3c2F)c1F` [Example 3CT, 6-(3-((5-chloro-2-methoxy-pyridine)-3-sulfonamido)-2,6-difluorophenyl)-7-fluoro-N-(1-(2-hydroxyethyl)-1H-pyrazol-4-yl)-1H-indazole-3-carboxamide] was run?
Answer: Its IC50 is less than 500 nM.

Question: How did the IC50 turn out when `Cc1ccc(S(=O)(=O)Nc2ccc(F)c(-c3ccc4c(C(=O)NCCCN(C)C)n[nH]c4c3F)c2F)c(C)n1` [Example 3CO, N-(3-(dimethylamino)propyl)-6-(3-((2,6-dimethylpyridine)-3-sulfonamido)-2,6-difluorophenyl)-7-fluoro-1H-indazole-3-carboxamide] was run?
Answer: The IC50 was 500 to 2500 nM.

Question: How did the IC50 turn out when `O=C(NCCCO)c1n[nH]c2c(F)c(-c3c(F)ccc(NS(=O)(=O)c4cccn5ccnc45)c3F)ccc12` [Example 3AR, 6-(2,6-difluoro-3-(imidazo-[1,2-a]pyridine-8-sulfon-amido)phenyl)-7-fluoro-N-(3-hydroxypropyl)-1H-indazole-3-carboxamide] was run?
Answer: The IC50 was 2500 to 10000 nM.

Question: `O=S(=O)(Nc1ccc(F)c(-c2ccc3c(-c4ccccc4)n[nH]c3c2)c1F)c1cc(F)ccc1F` [Example 10, N-(2,4-Difluoro-3-(3-phenyl-1H-indazol-6-yl)phenyl)-2,5-difluorobenzenesulfonamide] was tested. Which IC50 did it give?
Answer: Its IC50 is 2500 to 10000 nM.

Question: `Cc1c(CO)cc(F)cc1S(=O)(=O)Nc1ccc(F)c(-c2ccc3c(C(=O)Nc4cn[nH]c4)n[nH]c3c2F)c1F` [Example 4K] was tested. Which IC50 did it give?
Answer: The IC50 was less than 500 nM.

Question: How did the IC50 turn out when `COc1ncc(F)cc1S(=O)(=O)Nc1ccc(F)c(-c2ccc3c(C(=O)Nc4cccn(C)c4=O)n[nH]c3c2F)c1F` [Example 3BW, 6-(2,6-difluoro-3-((5-fluoro-2-methoxypyridine)-3-sulfonamido)phenyl)-7-fluoro-N-(1-methyl-2-oxo-1,2-dihydropyridin-3-yl)-1H-indazole-3-carboxamide] was run?
Answer: Its IC50 is 2500 to 10000 nM.

Question: For `COc1ncc(F)cc1S(=O)(=O)Nc1ccc(F)c(-c2ccc3c(C(=O)NCC(CO)CO)n[nH]c3c2F)c1F` [Example 3AT, 6-(2,6-difluoro-3-((5-fluoro-2-methoxypyridine)-3-sulfonamido)phenyl)-7-fluoro-N-(3-hydroxy-2-(hydroxymethyl)propyl)-1H-indazole-3-carboxamide], which IC50 is on record?
Answer: Its IC50 is less than 500 nM.

Question: `COc1nc(C)c(Cl)cc1S(=O)(=O)Nc1ccc(F)c(-c2ccc3c(C(=O)NCCCO)n[nH]c3c2F)c1F` [Example 3DO, 6-(3-((5-chloro-2-methoxy-6-methylpyridine)-3-sulfon-amido)-2,6-difluorophenyl)-7-fluoro-N-(3-hydroxypropyl)-1H-indazole-3-carboxamide] was tested. Which IC50 did it give?
Answer: The IC50 was less than 500 nM.

Question: How did the IC50 turn out when `NC1CCc2c1cc(F)cc2S(=O)(=O)Nc1ccc(F)c(-c2ccc3c(-c4ncc[nH]4)n[nH]c3c2F)c1F` (centres unmarked) [Example 4AO] was run?
Answer: The IC50 was greater than 10000 nM.

Question: `COc1cccc(-c2n[nH]c3c(F)c(-c4c(F)ccc(NS(=O)(=O)c5cc(F)cnc5C)c4F)ccc23)n1` [Example 14, N-(2,4-Difluoro-3-(7-fluoro-3-(6-methoxypyridin-2-yl)-1H-indazol-6-yl)phenyl)-5-fluoro-2-methylpyridine-3-sulfonamide] was tested. Which IC50 did it give?
Answer: Its IC50 is 500 to 2500 nM.
